According to ChEMBL document CHEMBL4715697, “Synthesis and biological activity of benzamide DNA minor groove binders” (2016):

Tests used:
Assay type in all cases: functional
K562 = assay: Growth inhibition of human K562 cells assessed as cell growth at 0.01 uM incubated for 48 hrs by sulforhodamine B assay relative to control; conditions: read-out: Activity
HCT-15 = assay: Growth inhibition of human HCT-15 cells assessed as cell growth at 0.01 uM incubated for 48 hrs by sulforhodamine B assay relative to control; conditions: read-out: Activity
MDA-MB-435 = assay: Growth inhibition of human MDA-MB-435 cells assessed as cell growth at 0.01 uM incubated for 48 hrs by sulforhodamine B assay relative to control; conditions: read-out: Activity
OVCAR-3 = assay: Growth inhibition of human OVCAR-3 cells assessed as cell growth at 0.01 uM incubated for 48 hrs by sulforhodamine B assay relative to control; conditions: read-out: Activity
OVCAR-8 = assay: Growth inhibition of human OVCAR-8 cells assessed as cell growth at 0.01 uM incubated for 48 hrs by sulforhodamine B assay relative to control; conditions: read-out: Activity
SK-OV-3 [1] = assay: Growth inhibition of human SK-OV-3 cells assessed as cell growth at 0.01 uM incubated for 48 hrs by sulforhodamine B assay relative to control; conditions: read-out: Activity
PC-3 [2] = assay: Growth inhibition of human PC-3 cells assessed as cell growth at 0.01 uM incubated for 48 hrs by sulforhodamine B assay relative to control; conditions: read-out: Activity
T47D = assay: Growth inhibition of human T47D cells assessed as cell growth at 0.01 uM incubated for 48 hrs by sulforhodamine B assay relative to control; conditions: read-out: Activity
HL-60(TB) = assay: Growth inhibition of human HL-60(TB) cells assessed as cell growth at 0.1 uM incubated for 48 hrs by sulforhodamine B assay relative to control; conditions: read-out: Activity
RPMI-8226 = assay: Growth inhibition of human RPMI-8226 cells assessed as cell growth at 0.1 uM incubated for 48 hrs by sulforhodamine B assay relative to control; conditions: read-out: Activity
EKVX = assay: Growth inhibition of human EKVX cells assessed as cell growth at 0.1 uM incubated for 48 hrs by sulforhodamine B assay relative to control; conditions: read-out: Activity
HOP-62 = assay: Growth inhibition of human HOP-62 cells assessed as cell growth at 0.1 uM incubated for 48 hrs by sulforhodamine B assay relative to control; conditions: read-out: Activity
NCI-H23 [3] = assay: Growth inhibition of human NCI-H23 cells assessed as cell growth at 0.1 uM incubated for 48 hrs by sulforhodamine B assay relative to control; conditions: read-out: Activity
SF-295 = assay: Growth inhibition of human SF-295 cells assessed as cell growth at 0.1 uM incubated for 48 hrs by sulforhodamine B assay relative to control; conditions: read-out: Activity
SK-MEL-2 = assay: Growth inhibition of human SK-MEL-2 cells assessed as cell growth at 0.1 uM incubated for 48 hrs by sulforhodamine B assay relative to control; conditions: read-out: Activity
IGROV-1 = assay: Growth inhibition of human IGROV-1 cells assessed as cell growth at 0.1 uM incubated for 48 hrs by sulforhodamine B assay relative to control; conditions: read-out: Activity
SK-OV-3 [4] = assay: Growth inhibition of human SK-OV-3 cells assessed as cell growth at 0.1 uM incubated for 48 hrs by sulforhodamine B assay relative to control; conditions: read-out: Activity
786-0 = assay: Growth inhibition of human 786-0 cells assessed as cell growth at 0.1 uM incubated for 48 hrs by sulforhodamine B assay relative to control; conditions: read-out: Activity
ACHN = assay: Growth inhibition of human ACHN cells assessed as cell growth at 0.1 uM incubated for 48 hrs by sulforhodamine B assay relative to control; conditions: read-out: Activity
NCI-H23 [5] = assay: Growth inhibition of human NCI-H23 cells assessed as cell growth at 1 uM incubated for 48 hrs by sulforhodamine B assay relative to control; conditions: read-out: Activity
TK-10 [6] = assay: Growth inhibition of human TK-10 cells assessed as cell growth at 1 uM incubated for 48 hrs by sulforhodamine B assay relative to control; conditions: read-out: Activity
PC-3 [7] = assay: Growth inhibition of human PC-3 cells assessed as cell growth at 1 uM incubated for 48 hrs by sulforhodamine B assay relative to control; conditions: read-out: Activity
DU-145 [8] = assay: Growth inhibition of human DU-145 cells assessed as cell growth at 1 uM incubated for 48 hrs by sulforhodamine B assay relative to control; conditions: read-out: Activity
NCI-H522 = assay: Growth inhibition of human NCI-H522 cells assessed as cell growth at 100 uM incubated for 48 hrs by sulforhodamine B assay relative to control; conditions: read-out: Activity
COLO 205 = assay: Growth inhibition of human COLO 205 cells assessed as cell growth at 100 uM incubated for 48 hrs by sulforhodamine B assay relative to control; conditions: read-out: Activity
SF-268 = assay: Growth inhibition of human SF-268 cells assessed as cell growth at 100 uM incubated for 48 hrs by sulforhodamine B assay relative to control; conditions: read-out: Activity
TK-10 [9] = assay: Growth inhibition of human TK-10 cells assessed as cell growth at 100 uM incubated for 48 hrs by sulforhodamine B assay relative to control; conditions: read-out: Activity
PC-3 [10] = assay: Growth inhibition of human PC-3 cells assessed as cell growth at 100 uM incubated for 48 hrs by sulforhodamine B assay relative to control; conditions: read-out: Activity
HCT-116 = assay: Growth inhibition of human HCT-116 cells incubated for 48 hrs by sulforhodamine B assay
M14 = assay: Growth inhibition of human M14 cells incubated for 48 hrs by sulforhodamine B assay
UACC-257 = assay: Growth inhibition of human UACC-257 cells incubated for 48 hrs by sulforhodamine B assay
UACC-62 = assay: Growth inhibition of human UACC-62 cells incubated for 48 hrs by sulforhodamine B assay
NCI/ADR-RES = assay: Growth inhibition of human NCI/ADR-RES cells incubated for 48 hrs by sulforhodamine B assay
DU-145 [11] = assay: Growth inhibition of human DU-145 cells incubated for 48 hrs by sulforhodamine B assay
MCF7 = assay: Growth inhibition of human MCF7 cells incubated for 48 hrs by sulforhodamine B assay
[12] = read-out: LC50 (the source's name)
[13] = read-out: pLC50 (the source's name) (converted)

**Q.** For `CC(=O)Nc1cc(CCl)cc(NC(=O)c2ccc(C(=O)Nc3cccc(NC(=O)CCCN(C)C)c3)cc2)c1`, which growth at 0.01 µM (K562) is on record?
**A.** 97%

**Q.** What about the growth at 0.01 µM (HCT-15) of the same molecule?
**A.** 94%

**Q.** What about the growth at 0.01 µM (MDA-MB-435) of the same molecule?
**A.** 96%

**Q.** And the growth at 0.01 µM (OVCAR-3)?
**A.** 112%

**Q.** What about the growth at 0.01 µM (OVCAR-8) of the same molecule?
**A.** 102%

**Q.** What about the growth at 0.01 µM (SK-OV-3 [1]) of the same molecule?
**A.** 106%

**Q.** And the growth at 0.01 µM (PC-3 [2])?
**A.** 104%

**Q.** What about the growth at 0.01 µM (T47D) of the same molecule?
**A.** 106%

**Q.** What about the growth at 0.1 µM (HL-60(TB)) of the same molecule?
**A.** 93%

**Q.** What about the growth at 0.1 µM (RPMI-8226) of the same molecule?
**A.** 113%

**Q.** And the growth at 0.1 µM (EKVX)?
**A.** 87%

**Q.** What about the growth at 0.1 µM (HOP-62) of the same molecule?
**A.** 104%

**Q.** And the growth at 0.1 µM (NCI-H23 [3])?
**A.** 98%

**Q.** What about the growth at 0.1 µM (SF-295) of the same molecule?
**A.** 74%

**Q.** And the growth at 0.1 µM (SK-MEL-2)?
**A.** 111%

**Q.** And the growth at 0.1 µM (IGROV-1)?
**A.** 113%

**Q.** What about the growth at 0.1 µM (SK-OV-3 [4]) of the same molecule?
**A.** 103%

**Q.** And the growth at 0.1 µM (786-0)?
**A.** 104%

**Q.** And the growth at 0.1 µM (ACHN)?
**A.** 101%

**Q.** And the growth at 1 µM (NCI-H23 [5])?
**A.** 93%

**Q.** And the growth at 1 µM (TK-10 [6])?
**A.** 102%

**Q.** And the growth at 1 µM (PC-3 [7])?
**A.** 103%

**Q.** What about the growth at 1 µM (DU-145 [8]) of the same molecule?
**A.** 106%

**Q.** And the growth at 100 µM (NCI-H522)?
**A.** 83%

**Q.** What about the growth at 100 µM (COLO 205) of the same molecule?
**A.** 100%

**Q.** And the growth at 100 µM (SF-268)?
**A.** 88%

**Q.** What about the growth at 100 µM (TK-10 [9]) of the same molecule?
**A.** 129%

**Q.** And the growth at 100 µM (PC-3 [10])?
**A.** 88%

**Q.** What about the GI50 (HCT-116; read-out: GI50) of the same molecule?
**A.** > 100 µM

**Q.** What about the CC50 (HCT-116; [12]) of the same molecule?
**A.** > 100 µM

**Q.** And the TGI (HCT-116; read-out: TGI)?
**A.** > 100 µM

**Q.** What about the GI50 (HCT-116; read-out: pGI50 (converted)) of the same molecule?
**A.** > 100 µM

**Q.** What about the CC50 (HCT-116; [13]) of the same molecule?
**A.** > 100 µM

**Q.** And the TGI (HCT-116; read-out: pTGI)?
**A.** > 100 µM

**Q.** And the GI50 (M14; read-out: GI50)?
**A.** > 100 µM

**Q.** And the CC50 (M14; [12])?
**A.** > 100 µM

**Q.** And the TGI (M14; read-out: TGI)?
**A.** > 100 µM

**Q.** And the GI50 (M14; read-out: pGI50 (converted))?
**A.** > 100 µM

**Q.** What about the CC50 (M14; [13]) of the same molecule?
**A.** > 100 µM

**Q.** And the TGI (M14; read-out: pTGI)?
**A.** > 100 µM

**Q.** What about the GI50 (UACC-257; read-out: GI50) of the same molecule?
**A.** > 100 µM

**Q.** And the LC50 (UACC-257; read-out: LC50)?
**A.** > 100 µM

**Q.** What about the TGI (UACC-257; read-out: TGI) of the same molecule?
**A.** > 100 µM

**Q.** What about the GI50 (UACC-257; read-out: pGI50 (converted)) of the same molecule?
**A.** > 100 µM

**Q.** What about the LC50 (UACC-257; read-out: pLC50 (converted)) of the same molecule?
**A.** > 100 µM

**Q.** And the TGI (UACC-257; read-out: pTGI)?
**A.** > 100 µM

**Q.** What about the GI50 (UACC-62; read-out: GI50) of the same molecule?
**A.** > 100 µM

**Q.** What about the CC50 (UACC-62; [12]) of the same molecule?
**A.** > 100 µM

**Q.** And the TGI (UACC-62; read-out: TGI)?
**A.** > 100 µM

**Q.** What about the GI50 (UACC-62; read-out: pGI50 (converted)) of the same molecule?
**A.** > 100 µM

**Q.** What about the CC50 (UACC-62; [13]) of the same molecule?
**A.** > 100 µM

**Q.** And the TGI (UACC-62; read-out: pTGI)?
**A.** > 100 µM

**Q.** What about the GI50 (NCI/ADR-RES; read-out: GI50) of the same molecule?
**A.** > 100 µM

**Q.** What about the CC50 (NCI/ADR-RES; [12]) of the same molecule?
**A.** > 100 µM

**Q.** What about the TGI (NCI/ADR-RES; read-out: TGI) of the same molecule?
**A.** > 100 µM

**Q.** And the GI50 (NCI/ADR-RES; read-out: pGI50 (converted))?
**A.** > 100 µM

**Q.** What about the CC50 (NCI/ADR-RES; [13]) of the same molecule?
**A.** > 100 µM

**Q.** And the TGI (NCI/ADR-RES; read-out: pTGI)?
**A.** > 100 µM

**Q.** And the GI50 (DU-145 [11]; read-out: GI50)?
**A.** > 100 µM

**Q.** What about the CC50 (DU-145 [11]; [12]) of the same molecule?
**A.** > 100 µM

**Q.** And the TGI (DU-145 [11]; read-out: TGI)?
**A.** > 100 µM

**Q.** And the GI50 (DU-145 [11]; read-out: pGI50 (converted))?
**A.** > 100 µM

**Q.** What about the CC50 (DU-145 [11]; [13]) of the same molecule?
**A.** > 100 µM

**Q.** And the TGI (DU-145 [11]; read-out: pTGI)?
**A.** > 100 µM

**Q.** What about the GI50 (MCF7; read-out: GI50) of the same molecule?
**A.** 30.1 µM

**Q.** And the CC50 (MCF7; [12])?
**A.** > 100 µM

**Q.** What about the TGI (MCF7; read-out: TGI) of the same molecule?
**A.** > 100 µM

**Q.** What about the GI50 (MCF7; read-out: pGI50 (converted)) of the same molecule?
**A.** 30.2 µM

**Q.** What about the CC50 (MCF7; [13]) of the same molecule?
**A.** > 100 µM

**Q.** What about the TGI (MCF7; read-out: pTGI) of the same molecule?
**A.** > 100 µM
